Measurements: US20100093675A1, “NOVEL METHOD” (BIOXELL S.P.A., priority 2006, published 2010)
Entries after “also recorded” stand apart in the source; their conditions may differ.

Experiments:
[1] = Colorimetric serum calcium level in animals of the adhesion experiment (FIG. 4); assay type: in vivo, mouse; conditions: animals of the FIG. 3 experiment
Procedure: (§1) Serum calcium was measured with Calcium Dry-fast kit (Sentinel diagnostics, Milan, Italy) with minor modification over the standard method: 10 ul serum, standard solution, or water are added to 100 ul of reconstituted assay reagent in a 96 well plate and incubated 5 min before reading at 550 nm, RT. Standards are run in quadruplicate, blank (water) in duplicate, and samples in triplicate.
Blood serum was obtained from animals of the experiment described in FIG. 3 and calcium level was measured.

Balb/c mice = assay: Mouse caecum abrasion model of post surgical adhesion formation; assay type: in vivo; conditions: for total adhesions score: sacrifice day seven, vs vehicle; for adhesion score / length (mm) of caecum adherent to peritoneum, difference to vehicle groups: Compound X 200, Compound Y 30, calcitriol 0.6 ug/kg i.p. once, then orally at MTD (100, 3, 0.3 ug/kg) once a day for 4 days, day seven, Anova with Bonferroni, FIG. 3
Text: Female BALB/c mice (20 g; Charles River Breeding Laboratories) were used for all experiments. All mice were maintained under standard conditions of food and water ad libitum on a 12-hour day-night cycle according to Home Office regulations.
Adhesions were induced in mice with a protocol based on a procedure developed by Sulaiman and colleagues (Sulaiman H, Gabella G, Davis C, Mutsaers S E, Boulos P, Laurent G J, Herrick S E: Growth of nerve fibres into murine peritoneal adhesions. J Pathol 2000, 192:396-403). Briefly, mice were anesthetized with a mixture of inhaled isoflurane and oxygen, and a midline incision was made through the abdominal wall and peritoneum. A standard site (6 mm diameter and 1 mm depth), midway and 0.5 cm lateral to the midline incision on the left abdominal wall, was injured scraping 30 times with a scalpel blade. The cecum was isolated and scraped 30 times on its lateral aspect with a scalpel blade, after first irrigating with 0.9% sterile saline. The two injured surfaces were then apposed by placing two horizontal mattress sutures (8/0 Ethilon; Ethicon, Berkshire, UK) 1 cm apart. The midline incision was closed in two layers; the linea-alba with a continuous suture, and then the skin using michel suture clips (Aesculap, Tuttlingen Germany). This model was validated using leuprolide acetate, a GnRH agonist (Enantone, Takeida) injected at 1 mg/kg one week before surgery. The animals were sacrified at day 7 as usual and adhesion score reduction was evaluated.
To assess the effects of vitamin D compounds on adhesion formation, peritoneal adhesions were induced in 10 animals that were randomized to experimental groups receiving the vitamin D compound or vehicle. In the initial study, animals in the experimental group (n=5) received 0.1-ml i.p. injection of 200 ug/kg of Compound X in saline solution or vehicle (saline solution) only (n=5), at the surgery day then 4 days of daily oral administration (Compound X 100 ug/kg in miglyol or miglyol vehicle only). A second experiment was done with one group of animals (n=5) receiving 0.1-ml i.p. injection of 6 ug/kg of Compound Y in saline solution at the surgery day and then 4 days of daily oral administration (3 ug/kg in miglyol). Control animals (n=5) were similarly administered with vehicle alone (miglyol or saline solution according to the route of administration). The third experiment was designed to compare the effect of calcitriol. Briefly, 28 animals were operated and randomized four different groups: vehicle (miglyol or saline solution according to the route of administration) (n=13), Compound X i.p. […] 30 ug/kg plus three days oral administration at MTD (n=5), calcitriol i.p. […] All animals were killed at 7 days, and the adhesions were quantified in a blinded fashion. Each animal received an adhesion score based on the number, length and strength of adhesions formed. Millimetres of caecum adherent to peritoneum was also measured.

[2] = test system: Human mesothelial cells (LP9); assay: tPA and PAI-1 production by ELISA in human mesothelial cells; assay type: cell-based; conditions: different doses; supernatants at 48 h; FIG. 8
Procedure: Human mesothelial cells (LP9, Cornell University) were plated in a 96 well plate in the presence of different doses of Compound Y. Supernatants were harvested at 48 h and tPA and PAI-1 production was measured by ELISA. tPA/PAI-1 ratio was calculated. Statistical analysis was performed by ANOVA test.

CPSS mouse model = assay: CPSS (cecal peritoneal scraping and sewing) mouse model of post-surgical adhesion, dose response; assay type: in vivo; conditions: 30-100-300 ug/kg i.p. at the end of surgery; sacrifice after two weeks; vs vehicle; FIG. 10
Procedure: Different doses of Compound Y were tested in the CPSS (cecal peritoneal scraping and sewing) mouse model of post-surgical adhesion. Animals were treated with 30-100-300 ug/kg of Compound Y in […] of sterile saline with 0.1% Tween-20, 0.1% ethanol, i.p. at the end of surgery. Animals were sacrificed after two weeks and peritoneral adhesion evaluated. Means of in situ score of the four groups were compared and percentage of reduction of the mean in situ score of treated animals compared with vehicle group was considered.

[3] = test system: New Zealand White rabbits; assay: Double uterine horn (DUH) rabbit model of post-surgical adhesions; assay type: in vivo
Procedure: Animals: Twenty eight, female New Zealand White rabbits, 2.4-2.7 kg, were purchased from Irish Farms (Norco, Calif.) and quarantined for at least 2 days prior to use. Seven rabbits were randomized into four treatment groups prior to initiation of surgery. The rabbits were housed on a 12:12 light:dark cycle with food and water available ad libitum.
Double Uterine Horn Model: Rabbits were anesthetized with a mixture of 55 mg/kg ketamine hydrochloride and 5 mg/kg Rompum intramuscularly. Following preparation for sterile surgery, a midline laparotomy was performed. The uterine horns were exteriorized and traumatized by abrasion of the serosal surface with gauze until punctate bleeding developed. Ischemia of both uterine horns was induced by removal of the collateral blood supply. The remaining blood supply to the uterine horns was the ascending branches of the utero-vaginal arterial supply of the myometrium. Treated animals received 25 mL of either vehicle (lactated Ringers' solution with 0.1% Tween 20, 0.1% isopropyl alcohol), or vehicle with one of two doses of Compound Y (30 or 300 μg/kg). An additional group of animals received surgery only. The horns were then returned to their normal anatomic position and the midline sutured with 3-0 Vicryl. The animals were weighed before surgery and necropsy.
After 7 days, the rabbits were terminated and the percentage of the area of the horns adherent to various organs determined.
In addition an overall score which took into account all of the above data was given to each rabbit. The following scoring system was used:
The rabbits were scored by two independent observers that were blinded to the prior treatment of the animal. If there was disagreement as to the score to be assigned to an individual animal, the higher score was given.

C57/BL6 mice = assay: CLP (cecal ligation and puncture) mortality due to infection potentiation; assay type: in vivo, mouse; conditions: 30 mg/kg IP on the day of surgery; ten mice per group; vs vehicle; FIG. 15
Procedure: CLP (cecal ligation and puncture) was performed with 23G needle and 50-70% of cecal ligation. Compound Y 30 mg/kg was administered IP on the day of surgery. The mortality was checked twice a day. Ten C57/BL6 mice per group were used.

[4] = Intraperitoneal single administration, serum calcium levels; assay type: in vivo, mouse; conditions: female BALB/c mice, single i.p., FIG. 9
hairless mice = assay: Full thickness wound healing mouse model; assay type: in vivo; conditions: daily oral 3 mg/kg, 5 days a week, 5 hairless mice per group, vs vehicle, FIG. 13
Procedure: One full thickness wound of 1 cm in diameter was marked using a template and the tissue was excised to the level of the panniculus carnosus using dissecting scissors and forceps. The wound healing was determined by drawing the wound margin with tracing film. The rate of wound healing is expressed as the percentage area remaining 5 hairless mice per group, daily oral treatment with 3 mg/kg of Compound Y, 5 days a week. Wound healing curve using the Boltzman equation and V50 (half time of wound healing) were calculated.

[5] = Serum calcemia after i.p. or i.p. plus oral Compound Y in CD1 mice (FIG. 5); assay type: in vivo, mouse; conditions: different doses i.p., or i.p. plus oral for 3 days at MTD (3 ug/kg), 24 h after the last administration
Procedure: as §1
CD1 mice were used to test serum calcemia after different doses of Compound Y administered i.p. A second group of animals received both i.p. (different doses) and oral administration for 3 days at MTD (3 ug/kg). Serum calcemia was measured 24 h after the last administration.

Human mesothelial cells = assay: VEGF and TGF-b production by ELISA in human mesothelial cells; assay type: cell-based; conditions: different doses; supernatants at 48 h; FIG. 14
Procedure: Human mesothelial cells (Cornell Cell Repositories) were plated in a 96 well plate in the presence of different doses of Compound Y. Supernatants were harvested at 48 h and VEGF and TGF-b production was measured by ELISA. Total number of live cells were quantified by fluorimetric assay.

3T3-L1 cells = assay: Fibrin clot lysis by mouse fibroblasts 3T3-L1; assay type: cell-based; conditions: cells incubated overnight with 10^-6 to 10^-9 M; normalized to untreated cells; FIG. 7
Procedure: Confluent 3T3-L1 cells were incubated overnight with the following compounds: TGF-β1 5 ng/ml, Compound Y 10^−6, 10^−7, 10^−8 and 10^−9 M. After removing the supernatants, Fibrinolysis Buffer containing 3 μM fibrinogen and 100 nM plasminogen (“BM”) was added to each well. A fibrin clot was induced by adding 20 nM thrombin. Plates were incubated at 37° C. and clot density was determined by measuring optical density at 405 nm. Results were shown as relative fibrin clot density at different timepoints normalized to untreated cells.

[6] = Serum calcium levels in DUH rabbit model animals; assay type: in vivo; conditions: both doses; prior to surgery, 24 hours after surgery and prior to necropsy; FIG. 12
Procedure: One ml of blood was drawn into red top tubes prior to surgery, 24 hours after surgery and prior to necropsy to allow the generation of serum to measure serum calcium levels. The blood was allowed to clot, the serum harvested by centrifugation and the serum calcium measured.

C=C1/C(=C\C=C2/CCC[C@]3(C)C([C@@H](C)C/C=C/C(O)(CC)CC)=CC[C@@H]23)C[C@@H](O)C[C@@H]1F [Compound X, 1-alpha-fluoro-25-hydroxy-16,23E-diene-26,27-bishomo-20-epi-cholecalciferol]
serum calcium level [1]: slightly hypercalcemic | total adhesions score (Balb/c mice; 200 ug/kg i.p. once four hours after surgery, then oral 100 ug/kg once a day for 4 days, FIG. 1): significantly reduces | adhesion score / length (mm) of caecum adherent to peritoneum, difference to vehicle groups (Balb/c mice): statistically significant

CC(C)(O)CCCC(CCCC(C)(C)O)[C@H]1CC[C@H]2/C(=C/C=C3C[C@@H](O)C[C@H](O)C3)CCC[C@]12C [Compound Y, 1,25-dihydroxy-21-(3-hydroxy-3-methylbutyl)-19-nor-cholecalciferol]
tPA/PAI-1 ratio [2]: increased | cecal-peritoneal adhesion formation (mean in situ score) (CPSS mouse model): reduces cecal-peritoneal adhesion formation in a dose dependent manner | adhesion formation (overall adhesion score) ([3]; 30 or 300 ug/kg in 25 mL at surgery, 7 days, P<0.001 for both doses compared with both controls, FIG. 11): significantly reduced | peritoneal inflammation, weight loss or hypercalcemia at necropsy ([3]; 30 or 300 ug/kg, necropsy after 7 days): No peritoneal inflammation, weight loss or hypercalcemia were observed | efficacy in preventing adhesion formation compared with prior studies of icodextrin ([3]; DUH rabbit model, icodextrin data from Verco et al. 2000, FIG. 16): comparable efficacy | efficacy in preventing adhesion formation compared with prior studies of lazaroids ([3]; DUH rabbit model, lazaroid data from Rodgers et al. 1998, FIG. 17): comparable efficacy | mortality (survival curves, log rank test) (C57/BL6 mice): no statistically significant difference | total adhesions score (Balb/c mice; 6 ug/kg i.p. once four hours after surgery, then orally 3 ug/kg once a day for 4 days, FIG. 2): significantly reduces | adhesion score / length (mm) of caecum adherent to peritoneum, difference to vehicle groups (Balb/c mice): statistically significant | serum calcemia ([4]; high dosage (300 mg/kg)): Transient hypercalcemia | wound healing (percentage wound area remaining, healing curve, V50) (hairless mice): No statistically significant difference; also recorded: does not delay wound healing | serum calcemia [5]: no hypercalcemic effect | TGF-b production (Human mesothelial cells): does not affect | VEGF production (Human mesothelial cells): does not affect | fibrin clot lysis (relative fibrin clot density, OD 405 nm) (3T3-L1 cells): accelerates fibrin clot lysis by mouse fibroblasts in a dose dependent manner | serum calcium (signs of hypercalcemia) [6]: No signs of hypercalcemia

C=C1/C(=C\C=C2/CCC[C@]3(C)[C@@H]([C@H](C)CCCC(C)(C)O)CC[C@@H]23)C[C@@H](O)C[C@@H]1O [calcitriol, reference compound]
adhesion score / length (mm) of caecum adherent to peritoneum, difference to vehicle groups (Balb/c mice): statistically significant | serum calcemia ([4]; 16 and 24 hours after administration): more pronounced and sustained hypercalcemia

CCNC(=O)[C@@H]1CCCN1C(=O)[C@H](CCCNC(=N)N)NC(=O)[C@H](CC(C)C)NC(=O)[C@@H](CC(C)C)NC(=O)[C@H](Cc1ccc(O)cc1)NC(=O)[C@H](CO)NC(=O)[C@H](Cc1c[nH]c2ccccc12)NC(=O)[C@H](Cc1c[nH]cn1)NC(=O)[C@@H]1CCC(=O)N1 [leuprolide acetate, reference compound]
total adhesion score (Balb/c mice; 1 mg/kg injected one week before surgery, sacrifice day 7, model validation, FIG. 6): statistically significant reduction
